Results as given in article PMC9136306 (The Journal of General Physiology, 2022).
Values joined by “and” are separate entries in the source; they are usually repeats but may differ in a detail not shown here. Equal entries are not always repeated.

Key:
human α7-AChR = human α7-AChR (Homo sapiens, UniProt P36544); experiment: cell-based; format: binding; conditions: for IC50: Unlabeled-ligand half-competition concentration
[1] = target: Human–C. elegans α7-AChR–β-GluCl ECD–TMD chimera (UniProt P36544+Q17328); experiment: cell-based; format: binding
[2] = target: Chicken–C. elegans α7-AChR–β-GluCl ECD–TMD chimera (UniProt P22770+Q17328); experiment: cell-based; format: binding
[3] = target: T1, Human–C. elegans α7-AChR–β-GluCl chimera S56T + S172T (Homo sapiens, UniProt P36544, S172T/S56T)
[4] = target: T1, Human–C. elegans α7-AChR–β-GluCl chimera S56T + S172T; experiment: biochemical; conditions: Unlabeled-ligand half-competition concentration

human α7-AChR, sequence (P36544 23-502): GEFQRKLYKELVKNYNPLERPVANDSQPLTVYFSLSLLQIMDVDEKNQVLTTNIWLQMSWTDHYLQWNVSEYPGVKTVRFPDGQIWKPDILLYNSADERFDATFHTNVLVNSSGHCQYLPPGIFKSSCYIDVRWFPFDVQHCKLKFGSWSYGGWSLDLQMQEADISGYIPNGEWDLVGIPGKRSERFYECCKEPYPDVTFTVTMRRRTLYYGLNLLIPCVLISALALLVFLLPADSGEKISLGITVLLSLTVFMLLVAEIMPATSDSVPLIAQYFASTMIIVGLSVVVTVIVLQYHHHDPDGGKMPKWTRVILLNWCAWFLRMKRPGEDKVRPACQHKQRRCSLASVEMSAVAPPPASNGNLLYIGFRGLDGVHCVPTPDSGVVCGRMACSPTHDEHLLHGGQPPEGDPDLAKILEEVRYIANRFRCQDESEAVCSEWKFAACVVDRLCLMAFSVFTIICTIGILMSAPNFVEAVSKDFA
T1 sequence (Q17328 245-434): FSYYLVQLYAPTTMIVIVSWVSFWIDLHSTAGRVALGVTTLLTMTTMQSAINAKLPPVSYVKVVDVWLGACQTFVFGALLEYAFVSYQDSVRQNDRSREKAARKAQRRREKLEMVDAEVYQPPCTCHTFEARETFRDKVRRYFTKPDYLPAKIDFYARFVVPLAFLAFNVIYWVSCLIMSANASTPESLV
T1 sequence (P36544 23-230 S56T/S172T): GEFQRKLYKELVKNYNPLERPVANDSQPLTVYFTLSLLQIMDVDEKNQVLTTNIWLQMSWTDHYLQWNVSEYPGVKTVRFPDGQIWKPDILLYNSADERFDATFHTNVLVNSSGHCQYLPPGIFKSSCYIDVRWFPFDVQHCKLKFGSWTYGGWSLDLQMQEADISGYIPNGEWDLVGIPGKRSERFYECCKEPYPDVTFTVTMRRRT
Chicken–C. elegans α7-AChR–β-GluCl ECD–TMD chimera, sequence (P22770 whole entry, looked up, stated change not applied, the tested form may be a part): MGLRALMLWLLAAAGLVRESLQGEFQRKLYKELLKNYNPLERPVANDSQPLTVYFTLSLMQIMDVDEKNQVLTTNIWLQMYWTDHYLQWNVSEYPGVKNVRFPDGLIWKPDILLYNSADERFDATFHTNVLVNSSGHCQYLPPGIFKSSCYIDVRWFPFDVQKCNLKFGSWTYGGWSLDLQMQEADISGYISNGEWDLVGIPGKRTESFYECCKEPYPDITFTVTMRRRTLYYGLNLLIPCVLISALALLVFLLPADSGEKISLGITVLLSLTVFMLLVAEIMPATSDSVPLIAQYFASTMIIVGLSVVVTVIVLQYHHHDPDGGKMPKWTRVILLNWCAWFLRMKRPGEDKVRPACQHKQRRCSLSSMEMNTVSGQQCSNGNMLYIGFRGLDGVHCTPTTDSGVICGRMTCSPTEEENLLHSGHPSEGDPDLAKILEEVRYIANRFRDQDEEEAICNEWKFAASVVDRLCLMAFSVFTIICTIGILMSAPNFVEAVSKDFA
Chicken–C. elegans α7-AChR–β-GluCl ECD–TMD chimera, sequence (Q17328 whole entry, looked up, stated change not applied, the tested form may be a part): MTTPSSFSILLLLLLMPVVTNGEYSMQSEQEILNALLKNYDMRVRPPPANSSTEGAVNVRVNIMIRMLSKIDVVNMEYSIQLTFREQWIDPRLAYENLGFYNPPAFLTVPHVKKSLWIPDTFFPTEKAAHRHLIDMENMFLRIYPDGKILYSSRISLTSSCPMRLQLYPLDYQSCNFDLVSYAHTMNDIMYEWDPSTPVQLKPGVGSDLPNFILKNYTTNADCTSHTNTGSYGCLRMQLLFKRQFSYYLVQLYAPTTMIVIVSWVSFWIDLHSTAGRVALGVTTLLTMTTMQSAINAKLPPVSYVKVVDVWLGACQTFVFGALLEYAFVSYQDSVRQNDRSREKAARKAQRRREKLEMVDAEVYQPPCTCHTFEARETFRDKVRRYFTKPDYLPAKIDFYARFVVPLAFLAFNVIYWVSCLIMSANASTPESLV
Human–C. elegans α7-AChR–β-GluCl ECD–TMD chimera, sequence (P36544 whole entry, looked up, change not shown, the tested form may be a part): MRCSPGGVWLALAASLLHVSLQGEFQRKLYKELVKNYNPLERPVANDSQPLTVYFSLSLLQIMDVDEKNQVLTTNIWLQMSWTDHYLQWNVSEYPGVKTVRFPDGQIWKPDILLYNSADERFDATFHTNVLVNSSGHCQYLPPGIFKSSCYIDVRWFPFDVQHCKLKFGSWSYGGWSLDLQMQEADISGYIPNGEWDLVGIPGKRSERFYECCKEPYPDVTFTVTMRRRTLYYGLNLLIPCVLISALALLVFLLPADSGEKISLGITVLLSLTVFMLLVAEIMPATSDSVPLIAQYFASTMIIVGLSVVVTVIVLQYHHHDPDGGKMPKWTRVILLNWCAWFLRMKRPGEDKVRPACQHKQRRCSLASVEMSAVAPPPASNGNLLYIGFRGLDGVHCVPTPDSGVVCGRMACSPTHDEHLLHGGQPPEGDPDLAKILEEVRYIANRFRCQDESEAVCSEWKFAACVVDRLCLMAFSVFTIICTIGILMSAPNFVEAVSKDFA
Human–C. elegans α7-AChR–β-GluCl ECD–TMD chimera, sequence (Q17328 whole entry, looked up, change not shown, the tested form may be a part): as the sequence (Q17328 whole entry, looked up, stated change not applied, the tested form may be a part) above

SMILES	Unlabeled-ligand nH (Hill coefficient, competition) (human α7-AChR)	IC50 (human α7-AChR) [nM]	Unlabeled-ligand nH (Hill coefficient, competition) [1]	IC50 ([1]; Unlabeled-ligand half-competition concentration)	IC50 [2] [nM]	Unlabeled-ligand nH (Hill coefficient, competition) [2]	difference between closed-state affinities of the chicken and human α7-AChR ECDs [2] [fold]	Unlabeled-ligand nH (Hill coefficient, competition) [3]	IC50 [4]	Hill coefficient, individual curve fitted separately (human α7-AChR)
C[N+](C)(C)CCO [Choline, choline]	1.28 ± 0.08	204000 ± 16000	–	–	–	–	–	–	–	–
CCN1C[C@]2(COC(=O)c3ccccc3N3C(=O)C[C@H](C)C3=O)CC[C@H](OC)[C@@]34[C@@H]5C[C@H]6[C@H](OC)[C@@H]5[C@](O)(C[C@@H]6OC)[C@@](O)([C@@H](OC)[C@H]23)[C@@H]14 [MLA, methyllycaconitine]	0.95 ± 0.05	88.9 ± 8.54	1.01 ± 0.05	68 nM and 68.3 nM	4.9 ± 0.52	0.990 ± 0.07	~14	1.04 ± 0.08	32 nM and 32.5 nM	–
CN1CCC[C@H]1c1cccnc1 [Nicotine, nicotine]	1.41 ± 0.06	–	1.08 ± 0.06	–	3680 ± 110	1.80 ± 0.07	–	–	–	1.50 ± 0.001 and 1.28 ± 0.001 and 1.42 ± 0.13
